Tests used:
Bcr/Abl fusion protein [1] = target: Bcr/Abl fusion protein (Homo sapiens, UniProt P00519); test: Inhibition of wild type BCR-ABL (unknown origin) incubated for 40 mins in presence of [gamma33P]ATP by scintillation method; format: protein assay
Bcr/Abl fusion protein [2] = target: Bcr/Abl fusion protein (Homo sapiens, UniProt P00519, T315I); test: Inhibition of BCR-ABL T315I mutant (unknown origin) incubated for 40 mins in presence of [gamma33P]ATP by scintillation method; format: protein assay
[3] = target: T1, Serine/threonine-protein kinase B-raf (Homo sapiens, UniProt P15056); test: Inhibition of BRAF (unknown origin) at 1 uM relative to control
T1 sequence (P15056 whole entry): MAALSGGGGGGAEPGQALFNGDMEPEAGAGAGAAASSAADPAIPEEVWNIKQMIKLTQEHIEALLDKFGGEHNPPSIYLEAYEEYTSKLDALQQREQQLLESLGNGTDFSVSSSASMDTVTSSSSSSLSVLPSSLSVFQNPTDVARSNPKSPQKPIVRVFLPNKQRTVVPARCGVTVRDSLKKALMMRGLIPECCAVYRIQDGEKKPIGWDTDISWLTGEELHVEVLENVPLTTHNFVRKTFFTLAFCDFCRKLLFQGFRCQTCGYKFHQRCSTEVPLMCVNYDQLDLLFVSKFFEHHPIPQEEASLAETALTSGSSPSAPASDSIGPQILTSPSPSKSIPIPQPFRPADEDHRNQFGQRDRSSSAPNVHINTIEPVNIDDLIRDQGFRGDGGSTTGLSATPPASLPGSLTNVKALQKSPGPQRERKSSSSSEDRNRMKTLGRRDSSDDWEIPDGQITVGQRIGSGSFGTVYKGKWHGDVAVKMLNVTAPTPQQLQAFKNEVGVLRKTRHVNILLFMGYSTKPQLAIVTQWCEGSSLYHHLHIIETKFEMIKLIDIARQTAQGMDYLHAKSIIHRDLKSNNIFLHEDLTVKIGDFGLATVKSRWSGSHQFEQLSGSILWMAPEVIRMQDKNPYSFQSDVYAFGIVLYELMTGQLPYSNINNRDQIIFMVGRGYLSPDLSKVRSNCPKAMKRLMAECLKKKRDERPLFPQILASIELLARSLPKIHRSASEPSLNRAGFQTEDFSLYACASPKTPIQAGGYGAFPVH

[4] = target: Proto-oncogene tyrosine-protein kinase Src (Homo sapiens, UniProt P12931); test: Inhibition of c-Src (unknown origin) at 1 uM relative to control
Chain of Proto-oncogene tyrosine-protein kinase Src (P12931 2-536 limits assumed): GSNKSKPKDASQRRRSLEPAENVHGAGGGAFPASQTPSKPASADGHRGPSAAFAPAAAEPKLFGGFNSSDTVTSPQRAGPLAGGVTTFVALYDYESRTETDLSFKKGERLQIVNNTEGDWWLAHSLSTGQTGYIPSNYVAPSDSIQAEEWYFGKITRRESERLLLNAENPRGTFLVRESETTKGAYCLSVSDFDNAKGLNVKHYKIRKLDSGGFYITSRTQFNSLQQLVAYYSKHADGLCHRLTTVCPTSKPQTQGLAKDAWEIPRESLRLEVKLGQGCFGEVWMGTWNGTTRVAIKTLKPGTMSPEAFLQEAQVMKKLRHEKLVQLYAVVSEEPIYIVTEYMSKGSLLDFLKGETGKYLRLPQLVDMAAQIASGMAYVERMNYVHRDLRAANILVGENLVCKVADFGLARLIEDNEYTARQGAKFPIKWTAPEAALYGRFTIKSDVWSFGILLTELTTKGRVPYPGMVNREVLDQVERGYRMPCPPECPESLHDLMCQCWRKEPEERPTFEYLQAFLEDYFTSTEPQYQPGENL

[5] = target: Receptor-type tyrosine-protein kinase FLT3 (Homo sapiens) (UniProt P36888); test: Inhibition of FLT3 (unknown origin) at 1 uM relative to control
Chain of Receptor-type tyrosine-protein kinase FLT3 (Homo sapiens) (P36888 whole entry): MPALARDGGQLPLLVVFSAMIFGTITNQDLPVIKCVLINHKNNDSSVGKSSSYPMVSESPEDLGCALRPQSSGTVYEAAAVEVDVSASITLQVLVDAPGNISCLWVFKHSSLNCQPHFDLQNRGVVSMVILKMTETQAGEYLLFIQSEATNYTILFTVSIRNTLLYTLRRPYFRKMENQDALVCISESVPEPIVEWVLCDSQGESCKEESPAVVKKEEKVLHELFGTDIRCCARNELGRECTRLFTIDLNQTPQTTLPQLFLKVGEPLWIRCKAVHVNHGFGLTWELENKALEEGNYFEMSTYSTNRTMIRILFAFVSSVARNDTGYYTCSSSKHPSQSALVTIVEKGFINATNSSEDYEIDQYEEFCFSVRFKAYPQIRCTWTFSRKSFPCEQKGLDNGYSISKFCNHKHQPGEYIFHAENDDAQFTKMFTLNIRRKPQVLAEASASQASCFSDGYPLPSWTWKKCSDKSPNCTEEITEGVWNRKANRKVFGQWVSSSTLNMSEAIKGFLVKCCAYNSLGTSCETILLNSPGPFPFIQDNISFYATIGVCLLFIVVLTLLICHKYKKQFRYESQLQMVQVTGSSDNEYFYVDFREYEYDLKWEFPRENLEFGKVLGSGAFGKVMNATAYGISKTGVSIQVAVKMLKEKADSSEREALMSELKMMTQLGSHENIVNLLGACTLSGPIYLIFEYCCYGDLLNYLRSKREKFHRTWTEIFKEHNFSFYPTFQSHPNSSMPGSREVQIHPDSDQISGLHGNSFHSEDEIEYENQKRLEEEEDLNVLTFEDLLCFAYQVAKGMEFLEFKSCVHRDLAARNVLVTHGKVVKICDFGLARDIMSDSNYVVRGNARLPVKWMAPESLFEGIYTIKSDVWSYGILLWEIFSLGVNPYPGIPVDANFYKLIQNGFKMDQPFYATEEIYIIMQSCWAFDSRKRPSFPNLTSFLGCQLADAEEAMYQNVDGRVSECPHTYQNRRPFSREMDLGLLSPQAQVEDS

[6] = target: T2, Macrophage colony-stimulating factor 1 receptor (Homo sapiens, UniProt P07333); test: Inhibition of FMS (unknown origin) at 1 uM relative to control
T2 sequence (P07333 whole entry): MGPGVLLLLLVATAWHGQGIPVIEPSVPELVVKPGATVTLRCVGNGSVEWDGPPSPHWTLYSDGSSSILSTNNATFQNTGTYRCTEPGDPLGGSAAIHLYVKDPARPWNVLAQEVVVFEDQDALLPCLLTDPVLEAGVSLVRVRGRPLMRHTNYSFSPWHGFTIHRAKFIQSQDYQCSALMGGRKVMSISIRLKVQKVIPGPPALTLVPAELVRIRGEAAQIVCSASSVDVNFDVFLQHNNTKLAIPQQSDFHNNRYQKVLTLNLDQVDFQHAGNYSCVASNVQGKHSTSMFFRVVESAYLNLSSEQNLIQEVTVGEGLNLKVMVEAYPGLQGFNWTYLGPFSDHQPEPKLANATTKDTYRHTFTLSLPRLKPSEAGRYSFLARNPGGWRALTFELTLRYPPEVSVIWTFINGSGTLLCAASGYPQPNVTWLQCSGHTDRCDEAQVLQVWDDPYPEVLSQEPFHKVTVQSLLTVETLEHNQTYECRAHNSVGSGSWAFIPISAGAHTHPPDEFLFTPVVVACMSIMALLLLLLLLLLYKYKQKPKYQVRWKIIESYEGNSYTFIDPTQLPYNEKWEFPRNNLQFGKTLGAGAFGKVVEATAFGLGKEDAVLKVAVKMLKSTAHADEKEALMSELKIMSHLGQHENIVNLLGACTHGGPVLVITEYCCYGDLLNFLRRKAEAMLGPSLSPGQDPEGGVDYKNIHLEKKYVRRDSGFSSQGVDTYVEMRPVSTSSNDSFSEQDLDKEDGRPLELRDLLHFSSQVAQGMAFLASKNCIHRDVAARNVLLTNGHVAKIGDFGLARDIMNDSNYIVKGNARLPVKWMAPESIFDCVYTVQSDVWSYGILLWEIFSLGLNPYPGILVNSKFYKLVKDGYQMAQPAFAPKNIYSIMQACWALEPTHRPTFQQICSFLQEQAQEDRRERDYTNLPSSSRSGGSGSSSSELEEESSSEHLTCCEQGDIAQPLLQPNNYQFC

[7] = target: Aurora kinase A (Homo sapiens) (UniProt O14965); test: Inhibition of Aurora A (unknown origin) at 1 uM relative to control
[8] = target: Hepatocyte growth factor receptor (Homo sapiens) (UniProt P08581); test: Inhibition of c-MET (unknown origin) at 1 uM relative to control
[9] = target: Epidermal growth factor receptor (Homo sapiens) (UniProt P00533); test: Inhibition of EGFR (unknown origin) at 1 uM relative to control
[10] = target: Cyclin-dependent kinase 4/cyclin D1 (Homo sapiens) (UniProt P11802+P24385); test: Inhibition of CDK4/cyclinD1 (unknown origin) at 1 uM relative to control; format: protein-complex assay
[11] = target: Serine/threonine-protein kinase Chk1 (Homo sapiens) (UniProt O14757); test: Inhibition of CHK1 (unknown origin) at 1 uM relative to control
Chain of Serine/threonine-protein kinase Chk1 (Homo sapiens) (O14757 whole entry): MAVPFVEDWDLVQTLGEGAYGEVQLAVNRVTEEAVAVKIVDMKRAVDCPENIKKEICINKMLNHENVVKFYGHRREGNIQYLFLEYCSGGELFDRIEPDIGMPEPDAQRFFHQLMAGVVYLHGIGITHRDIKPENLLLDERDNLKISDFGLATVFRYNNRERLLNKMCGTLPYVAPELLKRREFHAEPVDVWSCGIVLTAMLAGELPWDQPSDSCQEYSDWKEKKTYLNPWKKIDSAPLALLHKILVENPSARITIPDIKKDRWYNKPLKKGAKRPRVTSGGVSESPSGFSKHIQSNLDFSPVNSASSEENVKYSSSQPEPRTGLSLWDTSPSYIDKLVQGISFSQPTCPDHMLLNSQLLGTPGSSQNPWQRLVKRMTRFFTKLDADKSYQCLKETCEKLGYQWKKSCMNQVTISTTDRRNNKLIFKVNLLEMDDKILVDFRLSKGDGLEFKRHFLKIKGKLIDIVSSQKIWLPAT

[12] = target: Death-associated protein kinase 1 (Homo sapiens) (UniProt P53355); test: Inhibition of DAPK1 (unknown origin) at 1 uM relative to control
[13] = target: Insulin-like growth factor 1 receptor (Homo sapiens) (UniProt P08069); test: Inhibition of IGF1R (unknown origin) at 1 uM relative to control
[14] = target: Tyrosine-protein kinase JAK2 (Homo sapiens) (UniProt O60674); test: Inhibition of JAK2 (unknown origin) at 1 uM relative to control
[15] = target: Dual specificity mitogen-activated protein kinase kinase 1 (Homo sapiens) (UniProt Q02750); test: Inhibition of MEK1 (unknown origin) at 1 uM relative to control
Chain of Dual specificity mitogen-activated protein kinase kinase 1 (Homo sapiens) (Q02750 whole entry): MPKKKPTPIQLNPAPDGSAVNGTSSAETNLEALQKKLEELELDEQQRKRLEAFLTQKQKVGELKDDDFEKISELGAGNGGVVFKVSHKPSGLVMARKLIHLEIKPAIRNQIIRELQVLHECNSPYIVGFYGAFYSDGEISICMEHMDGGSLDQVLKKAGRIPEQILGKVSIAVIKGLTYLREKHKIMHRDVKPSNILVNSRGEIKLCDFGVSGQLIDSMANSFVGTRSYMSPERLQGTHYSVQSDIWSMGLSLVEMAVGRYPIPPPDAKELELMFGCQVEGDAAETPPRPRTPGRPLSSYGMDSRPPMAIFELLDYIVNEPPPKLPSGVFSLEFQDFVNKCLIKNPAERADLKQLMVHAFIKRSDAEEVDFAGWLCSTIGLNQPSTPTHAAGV

[16] = target: Serine/threonine-protein kinase PLK1 (Homo sapiens) (UniProt P53350); test: Inhibition of PLK1 (unknown origin) at 1 uM relative to control
[17] = target: Rho-associated protein kinase 1 (Homo sapiens) (UniProt Q13464); test: Inhibition of ROCK1 (unknown origin) at 1 uM relative to control
[18] = target: Proto-oncogene tyrosine-protein kinase ROS (Homo sapiens) (UniProt P08922); test: Inhibition of ROS/ROS1 (unknown origin) at 1 uM relative to control
[19] = target: Tyrosine-protein kinase SYK (Homo sapiens) (UniProt P43405); test: Inhibition of SYK (unknown origin) at 1 uM relative to control
[20] = target: High affinity nerve growth factor receptor (Homo sapiens) (UniProt P04629); test: Inhibition of TRKA (unknown origin) at 1 uM relative to control
Chain of High affinity nerve growth factor receptor (Homo sapiens) (P04629 33-796 limits assumed): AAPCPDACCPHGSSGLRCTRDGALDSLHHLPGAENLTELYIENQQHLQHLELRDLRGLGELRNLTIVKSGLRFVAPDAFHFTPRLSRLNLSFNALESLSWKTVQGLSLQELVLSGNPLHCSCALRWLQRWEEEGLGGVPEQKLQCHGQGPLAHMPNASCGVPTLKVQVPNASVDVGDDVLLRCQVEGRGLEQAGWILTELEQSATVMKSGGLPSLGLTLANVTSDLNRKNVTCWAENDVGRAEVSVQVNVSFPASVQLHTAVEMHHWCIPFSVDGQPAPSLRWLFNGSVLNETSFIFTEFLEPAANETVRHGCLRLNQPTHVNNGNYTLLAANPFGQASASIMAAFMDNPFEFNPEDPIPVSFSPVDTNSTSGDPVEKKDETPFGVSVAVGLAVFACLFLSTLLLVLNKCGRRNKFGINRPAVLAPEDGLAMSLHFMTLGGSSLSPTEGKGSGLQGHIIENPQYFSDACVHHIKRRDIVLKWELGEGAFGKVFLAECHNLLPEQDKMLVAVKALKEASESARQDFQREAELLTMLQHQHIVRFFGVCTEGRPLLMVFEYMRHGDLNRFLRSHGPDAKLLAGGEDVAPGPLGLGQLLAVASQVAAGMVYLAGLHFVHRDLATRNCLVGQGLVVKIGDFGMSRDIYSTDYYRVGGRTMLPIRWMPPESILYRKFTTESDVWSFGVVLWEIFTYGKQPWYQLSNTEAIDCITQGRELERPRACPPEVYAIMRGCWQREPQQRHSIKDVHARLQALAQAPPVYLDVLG

[21] = target: T1, Serine/threonine-protein kinase B-raf; test: Inhibition of BRAF (unknown origin) in presence of ATP
[22] = target: T2, Macrophage colony-stimulating factor 1 receptor; test: Inhibition of FMS (unknown origin) in presence of ATP
Homo sapiens = organism: Homo sapiens; test: Selectivity index, ratio of IC50 for FMS (unknown origin) to IC50 for Bcr-Abl (unknown origin)
K562 [23] = test: Antiproliferative activity against human K562 cells assessed as cell growth inhibition incubated for 72 hrs by MTT assay; format: functional
[24] = Antiproliferative activity against human L132 cells assessed as cell growth inhibition incubated for 72 hrs by MTT assay; format: cell-based
CCRF-CEM [25] = test: Antiproliferative activity against human CCRF-CEM cells assessed as cell growth inhibition at 10 uM measured after 48 hrs by SRB assay relative to control; format: functional; settings: read-out: GI
CCRF-CEM [26] = test: Antiproliferative activity against human CCRF-CEM cells assessed as cell growth inhibition measured after 48 hrs by SRB assay; format: functional
K562 [27] = test: Antiproliferative activity against human K562 cells assessed as cell growth inhibition at 10 uM measured after 48 hrs by SRB assay relative to control; format: functional; settings: read-out: GI
K562 [28] = test: Antiproliferative activity against human K562 cells assessed as cell growth inhibition measured after 48 hrs by SRB assay; format: functional
HL-60(TB) = test: Antiproliferative activity against human HL-60(TB) cells assessed as cell growth inhibition at 10 uM measured after 48 hrs by SRB assay relative to control; format: functional; settings: read-out: GI
MOLT-4 = test: Antiproliferative activity against human MOLT-4 cells assessed as cell growth inhibition measured after 48 hrs by SRB assay; format: functional
RPMI-8226 [29] = test: Antiproliferative activity against human RPMI-8226 cells assessed as cell growth inhibition at 10 uM measured after 48 hrs by SRB assay relative to control; format: functional; settings: read-out: GI
RPMI-8226 [30] = test: Antiproliferative activity against human RPMI-8226 cells assessed as cell growth inhibition measured after 48 hrs by SRB assay; format: functional
SR = test: Antiproliferative activity against human SR cells assessed as cell growth inhibition at 10 uM measured after 48 hrs by SRB assay relative to control; format: functional; settings: read-out: GI
[31] = target: Bcr/Abl fusion protein (Homo sapiens) (UniProt P00519+P11274); test: Inhibition of Bcr-Abl in human K562 cells assessed as reduction in Bcr-Abl phosphorylation incubated for 1 hr by Western blotting analysis; format: cell-based; settings: dose 0.003-0.3 µM
[32] = Tmax in ICR mouse at 10 mg/kg, po measured up to 8 hrs by LC-MS/MS analysis; format: ADME, organism-based; settings: in vivo
[33] = Cmax in ICR mouse at 10 mg/kg, po measured up to 8 hrs by LC-MS/MS analysis; format: ADME, organism-based; set-up: route oral, dose 10 mg/kg, time <=8; settings: in vivo
[34] = Half life in ICR mouse at 5 mg/kg, iv measured up to 8 hrs by LC-MS/MS analysis; format: ADME, organism-based; settings: in vivo
[35] = AUClast in ICR mouse at 5 mg/kg, iv measured up to 8 hrs by LC-MS/MS analysis; format: ADME, organism-based; set-up: route intravenous, dose 5 mg/kg, time <=8; settings: in vivo
[36] = AUClast in ICR mouse at 10 mg/kg, po measured up to 8 hrs by LC-MS/MS analysis; format: ADME, organism-based; set-up: route oral, dose 10 mg/kg, time <=8; settings: in vivo
[37] = Mean residence time in ICR mouse at 5 mg/kg, iv measured up to 8 hrs by LC-MS/MS analysis; format: ADME, organism-based; settings: in vivo
[38] = Volume of distribution at steady state in ICR mouse at 5 mg/kg, iv measured up to 8 hrs by LC-MS/MS analysis; format: ADME, organism-based; settings: in vivo, read-out: Vdss

Compound: Nc1n[nH]c2cccc(C#Cc3cccc(NC(=O)c4ccc(N5CCOCC5)c(C(F)(F)F)c4)c3)c12
- IC50 (Bcr/Abl fusion protein [1]): 4.6 nM
- IC50 (Bcr/Abl fusion protein [2]): 227 nM
- inhibition [3]: 87.8%
- inhibition [4]: 87.8%
- inhibition [5]: 87.8%
- inhibition [6]: 87.8%
- inhibition [7]: 43.4%
- inhibition [8]: 43.4%
- inhibition [9]: 43.4%
- inhibition [10]: < 30%
- inhibition [11]: < 30%
- inhibition [12]: < 30%
- inhibition [13]: < 30%
- inhibition [14]: < 30%
- inhibition [15]: < 30%
- inhibition [16]: < 30%
- inhibition [17]: < 30%
- inhibition [18]: < 30%
- inhibition [19]: < 30%
- inhibition [20]: < 30%
- IC50 [21]: 122 nM
- IC50 [22]: 16.2 nM
- Ratio IC50 (Homo sapiens): 3.5
- GI50 (K562 [23]): 20 nM
- GI50 at 72 h [24]: 9270 nM
- inhibition of growth at 10 µM (CCRF-CEM [25]): 89.5%
- GI50 (CCRF-CEM [26]): 1360 nM
- inhibition of growth at 10 µM (K562 [27]): 99%
- GI50 (K562 [28]): < 10 nM
- inhibition of growth at 10 µM (HL-60(TB)): 98%
- GI50 (MOLT-4): 1310 nM
- inhibition of growth at 10 µM (RPMI-8226 [29]): > 100%
- GI50 (RPMI-8226 [30]): 1980 nM
- inhibition of growth at 10 µM (SR): 87.4%
- Activity [31]: Dose-dependent effect
- Tmax [32]: 0.6 h
- Cmax [33]: 113 ng/mL
- half-life [34]: 3.5 h
- AUC(0-t) at 8 h [35]: 14000 ng·h/mL
- AUC(0-t) at 8 h [36]: 175 ng·h/mL
- MRT [37]: 4.7 h
- Vd [38]: 1.4 L/kg
